Publication PMC10671074, “Tumor Regression upon Intratumoral and Subcutaneous Dosing of the STING Agonist ALG-031048 in Mouse Efficacy Models” (International Journal of Molecular Sciences, 2023)

How the values were obtained:
[1] = Liver microsomal stability, mouse; type: in vitro ADME; settings: pH 7.4, 0.5 mg/mL mouse liver microsomes, 37 °C, read-out: Liver Microsome t½, Mouse
Experimental: The liver microsomal stability assay was carried out in 96-well microtiter plates. The test compounds at 5 µM and the reference compound (verapamil) at 1 µM final concentration were incubated separately at 37 °C with 0.5 mg/mL liver microsomes, with or without 1 mM NADPH in 100 mM potassium phosphate buffer, pH 7.4 with 3.3 mM MgCl2. […] At each of the time points (0, 15, 30, and 60 min), the enzymatic reaction was terminated with the addition of 150 μL of quenching solution (100% acetonitrile, 0.1% formic acid, and the internal standard), and subsequently the mixtures were vortexed vigorously for 20 min and centrifuged at 4000 rpm at 10 °C. The supernatants (80 µL) were transferred to a clean 96-well plate and analyzed via LC/MS/MS. The peak area ratios of each test compound over the internal standard were plotted against incubation time, and the t½ was calculated from the curve assuming first-order kinetics.

[2] = system: Hepa1–6 tumors; assay: Hepa1–6 mouse hepatocellular carcinoma model; type: in vivo
Experimental: The animals were fed ad libitum water (0.2-μm filtered, reverse osmosis, autoclaved), and standard irradiated rodent chow. The mice were housed on autoclaved, crushed corncob bedding, which was changed weekly, on a 12 h light cycle at 20–26 °C and 40–70% humidity.
The Hepa1–6 tumor cells were maintained in vitro in DMEM supplemented with 10% FBS at 37 °C in an atmosphere of 5% CO2 in air. Cells in the exponential growth phase were harvested and quantitated using a cell counter, adjusted to 5 × 10^7/mL in PBS before tumor inoculation.
Each mouse was inoculated subcutaneously in the right front flank region with Hepa1–6 tumor cells (5 × 10^6) in 0.1 mL PBS for tumor development. After tumor cell inoculation, the animals were checked daily for morbidity and mortality and for any effects of tumor growth or test articles on behavior such as mobility, food and water consumption, eye/hair matting, and any other abnormalities. Dosing started when the average tumor volume reached 98 mm^3. The anti-PD-1 antibody was dosed IP at 10 mg/kg twice per week (BIW), while ALG-031048 was dosed IT at 25 and 100 μg/animal on Days 1, 5, and 9. Tumor volumes were measured […], as described above.
Figure S6. A: Tumor regression in Hepa1‐6 tumor‐bearing […] mice upon IT treatment with three doses of 25 μg (light blue) or 100 μ g ALG‐031048 (dark blue), in comparison to treatment with 10 mg/kg anti‐PD‐1 antibody twice per week, 6 doses total (red). Vehicle‐treated animals are shown in black; shown are the mean tumor volumes ± standard deviation for each group of 10 animals.
Irregular, crater‐shaped tumors prevented accurate tumor volume measurement between Days 8‐
25. Treatment started when tumors reached an average volume of 98 mm3. Statistical analysis pro‐ vided in Table S4. B: Tumor weight for each group at the end of the study. Statistical analysis pro‐ vided in Table S5. C: Plasma cytokine levels 6 hours after the first dose. Each symbol represents one animal as well as the mean of the group (n=10). Unpaired t‐test was used to compare different groups: all groups for al l cytokines were statistically significant from each other with P‐values of < 0.0001 with the following exceptions: vehicle vs anti‐PD‐1 were non‐significant (all cytokines); the […]

[3] = system: phosphodiesterase I from Crotalus adamanteus venom (SVPD)
[4] = biological target: STING R232 (Homo sapiens, UniProt Q86WV6, H232R); assay: HEK 293 STING R232 IRF reporter assay; type: cell-based; parameters: host or cells: 293T-Dual hSTING-R232 (HEK 293T derived); settings: HEK 293 STING R232 cells, digitonin dosing buffer 30 min, 20 h; mean±standard deviation; read-out: Reporter Cell Assay EC50, STING R232 IRF
Experimental: Assays were set up after allowing cells to adhere for 48 h. Compounds dissolved in water were serially diluted in dosing buffer containing 10 µg/mL of digitonin (MP Biomedicals, Solon, OH, USA). Media were aspirated from the cells, and 50 µL of buffer with compound was added in triplicate. […] An aliquot of 100 µL of CellTiter-Glo® (Promega, Madison, WI, USA) was added to the original plate still containing the cells, and luminescence was determined to measure viability. All readouts were measured on an Envision plate reader from Perkin Elmer. Data were analyzed using GraphPad™ Prism’s version 8.0 [Agonist] vs. response—variable slope (four parameters) model.

Sequence of STING R232 (Q86WV6 whole entry H232R): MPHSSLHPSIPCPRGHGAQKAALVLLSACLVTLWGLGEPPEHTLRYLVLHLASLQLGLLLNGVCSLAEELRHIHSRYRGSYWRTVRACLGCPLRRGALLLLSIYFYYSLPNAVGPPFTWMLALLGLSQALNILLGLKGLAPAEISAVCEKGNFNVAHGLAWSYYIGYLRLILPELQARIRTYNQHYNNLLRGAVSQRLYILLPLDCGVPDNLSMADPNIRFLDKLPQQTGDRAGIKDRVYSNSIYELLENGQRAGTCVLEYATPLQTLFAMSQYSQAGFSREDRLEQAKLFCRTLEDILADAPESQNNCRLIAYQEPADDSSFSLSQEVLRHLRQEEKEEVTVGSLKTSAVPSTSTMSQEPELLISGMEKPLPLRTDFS

CO[C@H]1[C@H]2OP(=O)(O)OC[C@@]34C[C@@H]3[C@@H](n3cnc5c(N)ncnc53)[C@H](O)[C@@H]4O[P@](=O)(S)OC[C@H]1O[C@H]2n1cnc2c(=O)[nH]c(N)nc21 [ALG-031048]
half-life at 5 µM [1]: > 8 h | Tumor weight at end of study ([2]; Hepa1–6, IT 25 and 100 μg): reduction in tumor weight | Tumor reduction at end of study ([2]; Hepa1–6, three IT doses of 25 μg (Days 1, 5, 9)): 12% | Mean tumor reduction at end of study ([2]; Hepa1–6, three IT doses of 100 μg (Days 1, 5, 9)): 88% | Complete tumor regression, animals ([2]; Hepa1–6 model): 100% | Stability after incubation with SVPD (in words) [3]: stable | EC50 [4]: 29 nM
